Assays:
Assay type in all cases: biochemical
[1] = molecular target: T1, mouse PDGF-β receptor tyrosine kinase (Mus musculus, UniProt P05622); experiment: PDGF receptor tyrosine kinase assay; details: for IC50: read-out: Inhibition of Protein Tyrosine Kinases, PDGF, IC50; for inhibition at 50 µM: read-out: Inhibition of Protein Tyrosine Kinases, PDGF, % Inhibition
T1 construct: a fragment of DNA that codes for the intracellular tyrosine kinase domain; made in house; host or cells: Sf9 insect cells (baculovirus), cell lysate
Excerpt: (§1) PDGF and FGF Receptor Tyrosine Kinase Assays
(§2) Full length cDNAs for the mouse PDGF-β and human FGF-1 (flg) receptor tyrosine kinases were obtained from J. Escobedo and prepared as described in J. Biol. Chem., 262:1482-1487 (1991), and PCR primers were designed to amplify a fragment of DNA that codes for the intracellular tyrosine kinase domain. The fragment was melded into a baculovirus vector, cotransfected with AcMNPV DNA, and the recombinant virus isolated. SF9 insect cells were infected with the virus to overexpress the protein, and the cell lysate was used for the assay. […] Briefly, to each well was added 82.5 μL of incubation buffer containing 25 mM Hepes (pH 7.0), 150 mM NaCl, 0.1% Triton X-100, 0.2 mM PMSF, 0.2 mM Na3 VO4, 10 mM MnCl2, and 750 μg/mL of Poly (4:1) glutamate-tyrosine followed by 2.5 μL of inhibitor and 5 μL of enzyme lysate (7.5 μg/μL FGF-TK or 6.0 μg/μL PDGF-TK) to initiate the reaction. Following a 10 minute incubation at 25° C., 10 μL of γ^32 P-ATP (0.4 μCi plus 50 μM ATP) was added to each well and samples were incubated for an additional 10 minutes at 25° C. The reaction was terminated by the addition of 100 μL of 30% trichloroacetic acid (TCA) containing 20 mM sodium pyrophosphate and precipitation of material onto glass fiber filter mats (Wallac). […] Nonspecific activity was defined as radioactivity retained on the filters following incubation of samples with buffer alone (no enzyme). Specific enzymatic activity was defined as total activity (enzyme plus buffer) minus nonspecific activity.

[2] = molecular target: T2, human FGF-1 (flg) receptor tyrosine kinase (Homo sapiens, UniProt P11362); experiment: FGF receptor tyrosine kinase assay; details: for IC50: read-out: Inhibition of Protein Tyrosine Kinases, FGF, IC50
T2 construct: a fragment of DNA that codes for the intracellular tyrosine kinase domain; made in house; host or cells: Sf9 insect cells (baculovirus), cell lysate
Excerpt: as §1, §2

C-src kinase = molecular target: T3, C-src kinase (Homo sapiens, UniProt P12931); experiment: C-src kinase assay; details: for IC50: read-out: Inhibition of Protein Tyrosine Kinases, C-src, IC50; for inhibition at 50 µM: read-out: Inhibition of Protein Tyrosine Kinases, C-src, % Inhibition
T3 construct: made in house; host or cells: baculovirus-infected insect cells
Method: V-src and C-src Kinase Assays
V-src or C-src kinase is purified from baculovirus infected insect cell lysates using an antipeptide monoclonal antibody directed against the N-terminal 2-17 amino acids. The antibody, covalently linked to 0.65-μm latex beads, is added to a suspension of insect cell lysis buffer comprised of 150 mM NaCl, 50 mM Tris pH 7.5, 1 mM DTT, 1% NP-40, 2 mM EGTA, 1 mM sodium vanadate, 1 mM PMSF, 1 μg/mL each of leupeptin, pepstatin, and aprotinin. […] At the end of the lysate incubation, the beads are rinsed 3 times in lysis buffer, resuspended in lysis buffer containing 10% glycerol, and frozen. These latex beads are thawed, rinsed three times in assay buffer which is comprised of 40 mM tris pH 7.5, 5 mM MgCl2, and suspended in the same buffer. In a Millipore 96-well plate with a 0.65 μm polyvinylidine membrane bottom are added the reaction components: 10-μL v-src or c-src beads, 10 μL of 2.5 mg/mL poly GluTyr substrate, 5 μM ATP containing 0.2 μCi labeled ^32 P-ATP, 5μL DMSO containing inhibitors or as a solvent control, and buffer to make the final volume 125 μL. The reaction is started at room temperature by addition of the ATP and quenched 10 minutes later by the addition of 125 μL of 30% TCA, 0.1M sodium pyrophosphate for 5 minutes on ice. The plate is then filtered and the wells washed with two 250-μL aliquots of 15% TCA, 0.1M pyrophosphate. The filters are punched, counted in a liquid scintillation counter, and the data examined for inhibitory activity in comparison to a known inhibitor such as erbstatin. The method is described more fully in J. Med. Chem., 37:598-609 (1994).

T3 sequence (P12931 whole entry): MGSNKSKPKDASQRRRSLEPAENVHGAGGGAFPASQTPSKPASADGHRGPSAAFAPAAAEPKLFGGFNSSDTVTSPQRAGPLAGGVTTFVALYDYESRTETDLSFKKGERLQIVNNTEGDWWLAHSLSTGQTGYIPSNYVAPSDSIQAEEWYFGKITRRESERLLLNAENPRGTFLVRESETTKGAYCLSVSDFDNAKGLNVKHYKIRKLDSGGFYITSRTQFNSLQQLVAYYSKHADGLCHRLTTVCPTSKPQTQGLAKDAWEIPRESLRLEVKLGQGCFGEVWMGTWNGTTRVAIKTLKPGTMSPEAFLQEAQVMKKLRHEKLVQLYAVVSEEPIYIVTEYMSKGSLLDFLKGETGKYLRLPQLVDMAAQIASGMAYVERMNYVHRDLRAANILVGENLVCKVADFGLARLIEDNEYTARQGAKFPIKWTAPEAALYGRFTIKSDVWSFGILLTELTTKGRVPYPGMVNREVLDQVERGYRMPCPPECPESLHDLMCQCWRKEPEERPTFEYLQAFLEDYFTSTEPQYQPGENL
T2 sequence (P11362 478-767 limits assumed): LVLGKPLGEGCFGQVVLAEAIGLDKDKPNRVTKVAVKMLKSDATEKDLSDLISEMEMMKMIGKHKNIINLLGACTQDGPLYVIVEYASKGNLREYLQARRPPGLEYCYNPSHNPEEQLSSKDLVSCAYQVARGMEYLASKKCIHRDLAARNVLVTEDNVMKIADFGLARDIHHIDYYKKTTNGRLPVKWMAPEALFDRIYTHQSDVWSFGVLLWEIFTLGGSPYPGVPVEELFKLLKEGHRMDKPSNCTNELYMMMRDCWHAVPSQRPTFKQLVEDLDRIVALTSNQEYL
T1 sequence (P05622 599-961 limits assumed): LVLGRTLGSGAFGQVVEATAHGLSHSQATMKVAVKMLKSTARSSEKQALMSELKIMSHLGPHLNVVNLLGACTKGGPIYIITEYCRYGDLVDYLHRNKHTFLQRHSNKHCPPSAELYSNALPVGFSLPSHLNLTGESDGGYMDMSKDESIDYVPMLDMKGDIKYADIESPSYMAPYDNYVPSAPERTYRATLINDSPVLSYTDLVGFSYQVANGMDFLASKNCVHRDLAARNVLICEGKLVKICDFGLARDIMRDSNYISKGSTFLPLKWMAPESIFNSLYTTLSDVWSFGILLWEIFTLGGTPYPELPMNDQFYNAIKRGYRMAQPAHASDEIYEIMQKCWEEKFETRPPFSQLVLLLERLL

Row | SMILES | IC50 [1] [µM] | IC50 [2] [µM] | IC50 (C-src kinase) [µM] | inhibition at 50 µM (C-src kinase) [%] | inhibition at 50 µM [1] [%] | inhibition at 50 µM ([2]; at 50 μM, read-out: Inhibition of Protein Tyrosine Kinases, FGF, % Inhibition) [%]
1 | CCN(CC)CCCNc1ncc2cc(-c3c(Cl)cccc3Cl)c(N=CN(C)C)nc2n1 [Example 78, N'-[6-(2,6-Dichlorophenyl)-2-{3-(diethylamino)propyl-amino}pyrido[2,3-d]pyrimidin-7-yl]-N,N-dimethylformamidine] | 32.9 | 4.01 | 3.99 |  |  | 
2 | CCNC(=O)Nc1nc2nc(NCCCN3CCN(C)CC3)ncc2cc1-c1c(Cl)cccc1Cl [Example 49, 1-{6-(2,6-Dichlorophenyl)-2-[3-(4-methyl-piperazin-1-yl)-propylamino]-pyrido[2,3-d]pyrimidin-7-yl}-3-ethyl-urea] | 0.42 | 0.0535 | 0.024 |  |  | 
3 | CCCNC(=O)Nc1nc2nc(N)ncc2cc1-c1c(Cl)cccc1Cl [Example 26, 1-[2-Amino-6-(2,6-dichlorophenyl)-pyrido[2,3-d]pyrimidin-7-yl]-3-propyl-ure] | 1.08 | 0.116 | 0.0395 |  |  | 
4 | CCCCCCCCNC(=O)Nc1nc2nc(NCCCN3CCN(C)CC3)ncc2cc1-c1c(Cl)cccc1Cl [Example 47, 1-{6-(2,6-Dichlorophenyl)-2-[3-(4-methyl-piperazin-1-yl)-propylamino]-pyrido[2,3-d]pyrimidin-7-yl}-3-octyl-urea] | 6.17 | 0.637 | 0.161 |  |  | 
5 | Nc1nc2nc(NCCCN3CCOCC3)ncc2cc1-c1c(Cl)cccc1Cl [Example 58, 6-(2,6-Dichlorophenyl)-N^2-(3-morpholin-4-yl-propyl)-pyrido[2,3-d]pyrimidine-2,7-diamine] | 19 | 3.46 |  | 110 |  | 
6 | CN1CCN(CCCNc2ncc3cc(-c4c(Cl)cccc4Cl)c(NC(=O)Nc4ccc(Br)cc4)nc3n2)CC1 [Example 44, 1-(4-Bromo-phenyl)-3-{6-(2,6-dichlorophenyl)-2-[3-(4-methyl-piperazin-1-yl)-propylamino]-pyrido[2,3-d]pyrimidin-7-yl}-urea] | 1.55 | 0.196 | 0.023 |  |  | 
7 | CCN(CCO)CCCNc1ncc2cc(-c3c(Cl)cccc3Cl)c(N)nc2n1 [Example 70, 2-({3-[7-Amino-6-(2,6-dichlorophenyl)-pyrido[2,3-d]pyrimidin-2-ylamino]-propyl}-ethyl-amino)-ethanol] | 31.4 | 2.59 | 0.929 |  |  | 
8 | CCN(CC)CCCCNc1ncc2cc(-c3c(Cl)cccc3Cl)c(N)nc2n1 [Example 53, 6-(2,6-Dichlorophenyl)-N^2-(4-diethylamino-butyl)-pyrido[2,3-d]pyrimidine-2,7-diamine] | 7.08 | 0.693 | 0.153 |  |  | 
9 | CCN(CC)CCCNc1ncc2cc(-c3c(Br)cccc3Br)c(N)nc2n1 [Example 61, 6-(2,6-Dibromo-phenyl)-N^2-[3-diethylamino-propyl)-pyrido[2,3-d]pyrimidine-2,7-diamine] | 45.6 | 7.85 | 0.764 |  |  | 
10 | CC(C)(C)NC(=O)Nc1nc2nc(N)ncc2cc1-c1cccc(Cl)c1Cl [Example 84, 1-[2-Amino-6-(2,3-dichlorophenyl)-pyrido[2,3-d]pyrimidin-7-yl]-3-tert-butyl-urea] | 2.26 | 0.162 | 3.82 |  |  | 
11 | COc1cccc(OC)c1-c1cc2cnc(N)nc2nc1N [Example 64, 6-(2,6-Dimethoxy-phenyl)-pyrido[2,3-d]pyrimidine-2,7-diamine] |  |  |  | 0 | 13 | 23.8
12 | Nc1ncc2cc(-c3c(F)cccc3F)c(N)nc2n1 [Example 63, 6-(2,6-Difluoro-phenyl)-pyrido[2,3-d]pyrimidine-2,7-diamine] | 7.01 | 0.543 | 1.78 |  |  | 
13 | CC(C)NC(=O)Nc1nc2nc(NCCCN3CCN(C)CC3)ncc2cc1-c1c(Cl)cccc1Cl [Example 38] | 0.36 | 0.047 | 0.019 |  |  | 
14 | CC(C)(C)NC(=O)Nc1nc2nc(N)ncc2cc1-c1ccccc1 [Example 82, 1-(2-Amino-6-phenyl-pyrido[2,3-d]pyrimidin-7-yl)-3-tert-butyl-urea] | 4.67 | 3.71 |  | 77.6 |  | 

More lines, now with the values ahead:

Row | IC50 [1] [µM] | IC50 [2] [µM] | IC50 (C-src kinase) [µM] | inhibition at 50 µM (C-src kinase) [%] | inhibition at 50 µM [1] [%] | inhibition at 50 µM ([2]; at 50 μM, read-out: Inhibition of Protein Tyrosine Kinases, FGF, % Inhibition) [%] | SMILES
15 | 4.48 | 11.2 | 19.3 |  |  |  | COc1ccccc1-c1cc2cnc(N)nc2nc1NC(=O)NC(C)(C)C [Example 101, 1-[2-Amino-6-(2-methoxy-phenyl)-pyrido[2,3-d]pyrimidin-7-yl]-3-tert-butyl-urea]
16 | 19.6 | 0.3 | 36.4 |  |  |  | COc1cccc(-c2cc3cnc(N)nc3nc2NC(=O)NC(C)(C)C)c1 [Example 103, 1-[2-Amino-6-(3-methoxy-phenyl)-pyrido[2,3-d]pyrimidin-7-yl]-3-tert-butyl-urea]
17 | 2.96 | 0.114 | 1.41 |  |  |  | CC(C)(C)NC(=O)Nc1nc2nc(N)ncc2cc1-c1c(Cl)ccc(Cl)c1Cl [Example 86, 1-[2-Amino-6-(2,3,6-trichloro-phenyl)-pyrido[2,3-d]pyrimidin-7-yl]-3-tert-butyl-urea]
18 | 2.79 | 0.135 |  | 100 |  |  | CN1CCN(CCCNc2ncc3cc(-c4c(Cl)cccc4Cl)c(NC(=O)NC45CC6CC(CC(C6)C4)C5)nc3n2)CC1 [Example 117, 1-Adamantan-1-yl-3-{6-(2,6-dichlorophenyl)-2-[3-(4-methyl-piperazin-1-yl)-propylamino]-pyrido[2,3-d]pyrimidin-7-yl}-urea]
19 | 13.7 | 4.48 | 5.66 |  |  |  | CC(C)(C)NC(=O)Nc1nc2nc(N)ncc2cc1-c1cccnc1 [Example 108, 1-(2-Amino-6-pyridin-3-yl-pyrido[2,3-d]pyrimidin-7-yl)-3-tert-butyl-urea]
20 | 0.618 | 0.181 | 0.214 |  |  |  | CC(C)(C)NC(=O)Nc1nc2nc(N)ncc2cc1-c1c(Cl)cccc1Br [Example 105, 1-[2-Amino-6-(2-bromo-6-chloro-phenyl)-pyrido[2,3-d]pyrimidin-7-yl]-3-tert-butyl-urea]
21 | 41.6 | 0.605 |  | 0 |  |  | Cc1cc(C)cc(-c2cc3cnc(N)nc3nc2NC(=O)NC(C)(C)C)c1 [Example 95, 1-[2-Amino-6-(3,5-dimethyl-phenyl)-pyrido[2,3-d]pyrimidin-7-yl]-3-tert-butyl-urea]
22 | 3.84 | 3.27 | 42.7 |  |  |  | Cc1cc(C)c(C)c(-c2cc3cnc(NCCCN4CCN(C)CC4)nc3nc2N)c1C [Example 120, N^2-[3-(4-Methyl-piperazin-1-yl)-propyl]-6-(2,3,5,6-tetramethyl-phenyl)-pyrido[2,3-d]pyrimidine-2,7-diamine]
23 | 11.5 | 12.8 |  | 27.5 |  |  | CC(C)(C)NC(=O)Nc1nc2nc(N)ncc2cc1-c1ccncc1 [Example 110, 1-(2-Amino-6-pyridin-4-yl-pyrido[2,3-d]pyrimidin-7-yl)-3-tert-butyl-urea]
24 |  | 1.8 |  | 0.5 | 34.3 |  | Cc1cc(C)c(C)c(-c2cc3cnc(N)nc3nc2N)c1C [Example 98, 6-(2,3,5,6-Tetramethyl-phenyl)-pyrido[2,3-d]pyrimidine-2,7-diamine]
25 | 6.05 | 0.343 | 4.17 |  |  |  | Cc1cccc(-c2cc3cnc(N)nc3nc2NC(=O)NC(C)(C)C)c1C [Example 93, 1-[2-Amino-6-(2,3-dimethyl-phenyl)-pyrido[2,3-d]pyrimidin-7-yl]-3-tert-butyl-urea]

Source: patent US5733913A, “6-Aryl pyrido[2,3-d] pyrimidines and naphthyridines for inhibiting protein tyrosine kinase mediated cellular proliferation” (priority 1995, dated 1998)
